pEC50: −log10 of the molar value. Like-named read-outs stand apart in the source and are kept apart here. Where no end group is shown, it is not given here.
Legend:
MrgX2 = biological target: T1, MrgX2 (Homo sapiens, UniProt Q96LB1); experiment: β-arrestin-2 recruitment to MrgX2, NanoBiT in HEK cells; type: cell-based
T1 construct: expressed in transfected cells; host or cells: HEK293T
T1 sequence (Q96LB1 1-330): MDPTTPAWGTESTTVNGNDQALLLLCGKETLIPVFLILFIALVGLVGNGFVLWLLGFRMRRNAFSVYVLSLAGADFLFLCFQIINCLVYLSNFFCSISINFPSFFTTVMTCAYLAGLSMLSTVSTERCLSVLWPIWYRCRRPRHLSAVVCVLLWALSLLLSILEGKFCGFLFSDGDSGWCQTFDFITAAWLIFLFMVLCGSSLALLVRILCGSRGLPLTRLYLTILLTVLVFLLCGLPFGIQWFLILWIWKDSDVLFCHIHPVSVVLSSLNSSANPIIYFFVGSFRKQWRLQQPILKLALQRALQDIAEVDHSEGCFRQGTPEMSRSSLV
Method: (§1) Ligand-induced recruitment of β-arrestin, miniGi or miniGq proteins (engineered GTPase domain of Gα subunit)[46],[47] to the receptors was monitored using NanoBiT technology (Promega), as previously described.[27],[48] HEK293T cells (5 × 10^6 cells) were seeded in 10 cm dishes, and 24 h later, the cells were cotransfected with pNBe plasmids encoding the receptor C-terminally fused to SmBiT and β-arrestin, miniGi, or miniGq N-terminally fused to LgBiT. After 24 h, the cells were detached and incubated for 25 min at 37 °C with Nano-Glo Live Cell substrate diluted 200-fold, distributed into white 96-well plates (1 × 10^5 cells/well), and treated with the indicated concentrations of peptides. Luminescence was recorded during 20 min with a Mithras LB940 luminometer (Berthold Technologies). For the concentration–response curves, the signal recorded with a saturating concentration of full agonist for each receptor was set as 100%. For receptor screening experiments, results were expressed as fold vehicle, and an agonist chemokine (100 nM) listed in the IUPHAR repository of chemokine receptor ligands was included as a positive control for each receptor.
(§2) Concentration–response curves were fitted to the four-parameter Hill equation using an iterative, least-squares method (GraphPad Prism version 8.0.1). All curves were fitted to data points generated from the mean of at least three independent experiments. Statistical tests, i.e., ordinary one-way ANOVA and post hoc analysis were performed with GraphPad Prism 8.0.1. The p-values are indicated as follows: *, p < 0.05; **, p < 0.01; ***, p < 0.001; and ****, p < 0.0001.

ACKR3 = biological target: T2, ACKR3 (Homo sapiens, UniProt P25106); experiment: β-arrestin-2 recruitment to ACKR3, nanoluciferase complementation (NanoBiT) in HEK cells; type: cell-based; conditions: for activity toward ACKR3 (β-arrestin-2 recruitment), in words: concentration range up to 9 μM
T2 construct: expressed in transfected cells; host or cells: HEK293T
Method: as §1, §2

GPR182 = biological target: T3, GPR182 (Homo sapiens, UniProt O15218); experiment: β-arrestin-2 recruitment to GPR182 (NanoBiT screen); type: cell-based; conditions: peptides 3 μM
T3 construct: expressed in transfected cells; host or cells: HEK293T
Method: as §1

HEK-ACKR3 cells = experiment: PAMP-12-FAM uptake by HEK-ACKR3 cells, imaging flow cytometry; type: cell-based, human; conditions: chemokine 200 nM, 15 min preincubation; PAMP-12-FAM 3 μM, 45 min at 37 °C
Method: HEK293T or HEK-ACKR3 cells were harvested in Opti-MEM and distributed into 96-well plates (3 × 10^5 cells/well). […] At 24 h post-transfection, the cells were harvested and treated as described above. Dead cells were excluded using Zombie NIR viability dye (BioLegend). Images of 1 × 10^4 in-focus, living single cells were acquired with an ImageStream Mark II imaging flow cytometer (Amnis) equipped with an extended depth of field (EDF) module and using 60× magnification. Samples were analyzed using Ideas6.2 software. The number of spots per cell was determined using a mask-based software wizard.

[1] = tested on: all known classical and atypical human chemokine receptors; experiment: β-arrestin-2 recruitment screen toward all chemokine receptors (NanoBiT); type: cell-based; conditions: peptides 3 μM, fold change over vehicle
Method: as §1

[2] = pEC50 ± S.E.M, β-arrestin-2 recruitment, ACKR3 (Supplementary Table 2), HEK cells, NanoBiT, three independent experiments
[3] = EC50, β-arrestin-2 recruitment toward MrgX2, HEK cells, NanoBiT, normalised to full agonist, three independent experiments
[4] = pEC50 ± S.E.M, β-arrestin recruitment, MrgX2 (Supplementary Table 1), HEK cells, NanoBiT, NA: no activity detected in the concentration range tested

T2 sequence (P25106 whole entry): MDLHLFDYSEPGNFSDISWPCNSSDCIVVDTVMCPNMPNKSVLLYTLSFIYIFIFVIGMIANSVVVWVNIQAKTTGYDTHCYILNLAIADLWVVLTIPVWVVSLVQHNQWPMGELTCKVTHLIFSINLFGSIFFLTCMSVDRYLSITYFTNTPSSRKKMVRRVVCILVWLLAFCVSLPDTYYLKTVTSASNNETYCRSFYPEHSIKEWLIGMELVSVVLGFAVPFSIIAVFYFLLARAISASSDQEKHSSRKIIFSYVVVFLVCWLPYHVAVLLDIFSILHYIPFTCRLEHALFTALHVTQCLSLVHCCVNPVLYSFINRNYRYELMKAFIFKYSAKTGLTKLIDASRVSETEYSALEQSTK
T3 sequence (O15218 whole entry, species assumed): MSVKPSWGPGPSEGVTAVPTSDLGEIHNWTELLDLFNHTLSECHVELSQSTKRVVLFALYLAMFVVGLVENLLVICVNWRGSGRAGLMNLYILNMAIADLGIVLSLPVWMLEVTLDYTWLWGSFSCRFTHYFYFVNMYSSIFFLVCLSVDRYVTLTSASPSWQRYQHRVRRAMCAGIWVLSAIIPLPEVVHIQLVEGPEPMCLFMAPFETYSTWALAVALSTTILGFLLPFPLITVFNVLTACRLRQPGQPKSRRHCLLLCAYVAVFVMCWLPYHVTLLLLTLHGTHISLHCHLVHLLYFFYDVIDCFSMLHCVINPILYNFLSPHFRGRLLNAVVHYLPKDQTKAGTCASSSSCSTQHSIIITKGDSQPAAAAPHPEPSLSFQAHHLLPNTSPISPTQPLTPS

Row | Molecule | pEC50 (MrgX2) | pEC50 (ACKR3; [2]) | other results
1 | CC(C)C[C@H](NC(=O)[C@H](C)NC(=O)[C@H](Cc1c[nH]c2ccccc12)NC(=O)[C@H](CCCCN)NC(=O)[C@H](CC(N)=O)NC(=O)[C@H](Cc1c[nH]c2ccccc12)NC(=O)[C@H](CCCCN)NC(=O)[C@H](CCCCN)NC(=O)[C@H](CCCNC(=N)N)NC(=O)[C@@H](N)Cc1ccccc1)C(=O)N[C@@H](CO)C(=O)N[C@@H](CCCNC(=N)N)C(=O)O | 5.64 | 5.80 | 
2 | CC[C@H](C)[C@H](NC(=O)[C@H](CCC(N)=O)NC(=O)[C@H](Cc1c[nH]cn1)NC(=O)[C@H](C)NC(=O)[C@H](CC(C)C)NC(=O)[C@H](CCCCN)NC(=O)[C@H](CCC(N)=O)NC(=O)[C@@H](NC(=O)[C@@H](NC(=O)[C@@H]1CSSC[C@H](NC(=O)CNC(=O)[C@H](Cc2ccccc2)NC(=O)[C@H](CO)NC(=O)[C@H](CCCNC(=N)N)NC(=O)[C@H](CC(C)C)NC(=O)CNC(=O)[C@H](CCC(N)=O)NC(=O)[C@H](Cc2ccccc2)NC(=O)[C@H](CC(N)=O)NC(=O)[C@H](CC(N)=O)NC(=O)[C@H](CCSC)NC(=O)[C@H](CO)NC(=O)[C@H](CCC(N)=O)NC(=O)[C@H](CCCNC(=N)N)NC(=O)[C@@H](N)Cc2ccc(O)cc2)C(=O)N[C@@H](CCCNC(=N)N)C(=O)N[C@@H](Cc2ccccc2)C(=O)NCC(=O)N[C@@H]([C@@H](C)O)C(=O)N1)[C@@H](C)O)C(C)C)C(=O)N[C@@H](Cc1ccc(O)cc1)C(=O)N[C@@H](CCC(N)=O)C(=O)N[C@@H](Cc1ccccc1)C(=O)N[C@H](C(=O)N[C@@H](CC(=O)O)C(=O)N[C@@H](CCCCN)C(=O)N[C@@H](CC(=O)O)C(=O)N[C@@H](CCCCN)C(=O)N[C@@H](CC(=O)O)C(=O)N[C@@H](CC(N)=O)C(=O)N[C@H](C(=O)N[C@@H](C)C(=O)N1CCC[C@H]1C(=O)N[C@@H](CCCNC(=N)N)C(=O)N[C@@H](CO)C(=O)N[C@@H](CCCCN)C(=O)N[C@H](C(=O)N[C@@H](CO)C(=O)N1CCC[C@H]1C(=O)N[C@@H](CCC(N)=O)C(=O)NCC(=O)N[C@@H](Cc1ccc(O)cc1)C(N)=O)[C@@H](C)CC)C(C)C)[C@@H](C)O [ADM] |  |  | activity toward GPR182, in words (GPR182): no activity
3 | CC(C)C[C@H](NC(=O)[C@H](C)NC(=O)[C@H](Cc1c[nH]c2ccccc12)NC(=O)[C@H](CCCCN)NC(=O)[C@H](CC(N)=O)NC(=O)[C@H](Cc1c[nH]c2ccccc12)NC(=O)[C@H](CCCCN)NC(=O)[C@H](CCCCN)NC(=O)[C@H](CCCNC(=N)N)NC(=O)[C@@H](N)Cc1ccccc1)C(=O)N[C@@H](CO)C(=O)N[C@@H](CCCNC(=N)N)C(N)=O [PAMP-12] |  |  | pEC50 (MrgX2; [3]): 6.11; pEC50 (MrgX2; [4]): 6.11; activity toward GPR182, in words (GPR182): no activity
4 | CSCC[C@H](NC(=O)[C@H](CC(C)C)NC(=O)CNC(=O)[C@H](Cc1ccccc1)NC(=O)[C@H](Cc1ccccc1)NC(=O)[C@H](CCC(N)=O)NC(=O)[C@H](CCC(N)=O)NC(=O)[C@@H]1CCCN1C(=O)[C@H](CCCCN)NC(=O)[C@@H]1CCCN1C(=O)[C@@H](N)CCCNC(=N)N)C(N)=O [substance P, reference compound] |  |  | activity toward ACKR3 (β-arrestin-2 recruitment), in words (ACKR3; HEK cells, NanoBiT): no activity
5 | AFRKKWNKWALSR-NH2 | 6.05 | 5.70 | 
6 | AMY: CGRP family peptide (KCNTATCATQRLANFLVHSSNNFGAILSSTNVGSNTY; not fully specified (C-terminus, bridges); cysteine pairing not given here; UniProt P10997 34-70, looked up) [reference compound] |  |  | activity toward ACKR3 (β-arrestin-2 recruitment), in words (ACKR3; HEK cells, NanoBiT): No activity
7 | ARKKWNKWALSR-NH2 | 6.03 | 4.33 | 
8 | ARLDVASEFRKKWNKWA [PAMP1-17] | 4.02 | 3.48 | 
9 | ARLDVASEFRKKWNKWALSR-NH2 [PAMP] |  |  | pEC50 (MrgX2; [3]): 5.21; pEC50 (MrgX2; [4]): 5.21; activity toward GPR182, in words (GPR182): no activity; pEC50 (ACKR3): < 5.00
10 | CT: CGRP family peptide [reference compound] |  |  | activity toward ACKR3 (β-arrestin-2 recruitment), in words (ACKR3; HEK cells, NanoBiT): No activity
11 | CXCL12: chemokine, full agonist of ACKR3; purchased from PeproTech |  |  | effect of chemokine preincubation on PAMP-12-FAM accumulation in HEK-ACKR3 cells, in words (HEK-ACKR3 cells): reduced PAMP-12 accumulation to background levels
12 | DVASEFRKKWNKWALSR-NH2 [PAMP 4-20] | 5.48 | 3.75 | 
13 | FAKKWNKWALSR-NH2 | 6.00 | 5.03 | 
14 | FKKKWNKWALSR-NH2 | 5.84 | 5.48 | 
15 | FRAKWNKWALSR-NH2 | 6.01 | 5.87 | 
16 | FRKAWNKWALSR-NH2 | 6.18 | 6.57 | 
17 | FRKKANKWALSR-NH2 | 5.70 | 5.12 | 
18 | FRKKFNKWALSR-NH2 | 6.23 | 5.37 | 
19 | FRKKWAKWALSR-NH2 | 6.32 | 6.08 | 
20 | FRKKWDKWALSR-NH2 | 6.32 | 6.23 | 
21 | FRKKWNAWALSR-NH2 | 6.26 | 5.90 | 
22 | FRKKWNKAALSR-NH2 | 5.60 | 5.65 | 

Row | Molecule | pEC50 (MrgX2) | pEC50 (ACKR3; [2]) | other results
23 | FRKKWNKFALSR-NH2 | 5.98 | 5.94 | 
24 | FRKKWNKWAASR-NH2 | 5.83 | 5.54 | 
25 | FRKKWNKWAFSR-NH2 | 6.13 | 6.02 | 
26 | FRKKWNKWALAR-NH2 | 6.47 | 6.04 | 
27 | FRKKWNKWALFR-NH2 | 6.68 | 6.24 | 
28 | FRKKWNKWALS-NH2 [FRKKWNKWALS -] | 5.81 | 5.59 | 
29 | FRKKWNKWALSA-NH2 | 5.24 | 4.95 | 
30 | FRKKWNKWALSK-NH2 | 6.10 | 5.99 | 
31 | FRKKWNKWALTR-NH2 | 6.57 | 6.24 | 
32 | FRKKWNKWFLSR-NH2 | 6.38 | 6.29 | 
33 | FRKKWNKWGLSR-NH2 | 5.96 | 5.80 | 
34 | FRKKWNKYALSR-NH2 | 6.13 | 6.11 | 
35 | FRKKWNRWALSR-NH2 | 5.71 | 6.48 | 
36 | FRKKWQKWALSR-NH2 | 5.33 | 6.11 | 
37 | FRKKYNKWALSR-NH2 | 5.61 | 5.50 | 
38 | FRKRWNKWALSR-NH2 | 5.72 | 6.12 | 
39 | FRRKWNKWALSR-NH2 | 5.56 | 6.33 | 
40 | KWNKWALSR-NH2 [PAMP(12–20)] |  |  | agonist activity toward the other 24 chemokine receptors tested, in words [1]: do not activate
41 | RKKWNKWALSR-NH2 [- RKKWNKWALSR] | 5.68 | 4.54 | 
42 | WNKWALSR-NH2 [PAMP 13-20] |  | 4.93 | 
43 | YRKKWNKWALSR-NH2 | 6.04 | 5.17 | 

From PMC8033753, “Proadrenomedullin N-Terminal 20 Peptides (PAMPs) Are Agonists of the Chemokine Scavenger Receptor ACKR3/CXCR7” (ACS Pharmacology & Translational Science, 2021)
